Source: ChEMBL document CHEMBL1201862, “PubChem BioAssay data set” (2004)
Activity calls are given as the source filed them.

What was measured:
[1] = biological target: Potassium voltage-gated channel subfamily KQT member 2 (Rattus norvegicus, UniProt O88943); assay: rat KCNQ2 current potentiators – automated patch clamp, KCNQ2-CHO cells, SAR follow-up (AID 493113); type: functional
[2] = biological target: Sphingosine 1-phosphate receptor 2 (Homo sapiens, UniProt O95136); assay: Late stage counterscreen assay for S1P4 antagonists: Fluorescence dose response cell-based screening assay for antagonists of the Sphingosine 1-Phosphate Receptor 2 (S1P2). [Related pubchem assays (depositor defined):AID1510, AID1524, AID1692, AID1853, AID2332, AID489009, AID489017]; type: functional
[3] = biological target: Sphingosine 1-phosphate receptor 3 (Homo sapiens, UniProt Q99500); assay: Late stage counterscreen assay for S1P4 antagonists: Fluorescence dose response cell-based screening assay for antagonists of the Sphingosine 1-Phosphate Receptor 3 (S1P3). [Related pubchem assays (depositor defined):AID1510, AID1524, AID1692, AID1853, AID2332, AID489009, AID489017]; type: functional
[4] = biological target: Sphingosine 1-phosphate receptor 1 (Homo sapiens, UniProt P21453); assay: Late stage counterscreen assay for S1P4 antagonists: Fluorescence dose response cell-based screening assay for antagonists of the Sphingosine 1-Phosphate Receptor 1 (S1P1). [Related pubchem assays (depositor defined):AID1510, AID1524, AID1692, AID1853, AID2332, AID489009, AID489017]; type: functional
[5] = biological target: Sphingosine 1-phosphate receptor 5 (Homo sapiens, UniProt Q9H228); assay: Late stage counterscreen assay for S1P4 antagonists: Fluorescence dose response cell-based screening assay for antagonists of the Sphingosine 1-Phosphate Receptor 5 (S1P5). [Related pubchem assays (depositor defined):AID1510, AID1524, AID1692, AID1853, AID2332, AID489009, AID489017]; type: functional
[6] = biological target: T1, Sphingosine 1-phosphate receptor 4 (Homo sapiens, UniProt O95977); assay: potency of S1P4 blockers – cell-based, fluorescence, synthesized analogues, late-stage follow-up (AID 2346); type: functional
T1 sequence (O95977 whole entry): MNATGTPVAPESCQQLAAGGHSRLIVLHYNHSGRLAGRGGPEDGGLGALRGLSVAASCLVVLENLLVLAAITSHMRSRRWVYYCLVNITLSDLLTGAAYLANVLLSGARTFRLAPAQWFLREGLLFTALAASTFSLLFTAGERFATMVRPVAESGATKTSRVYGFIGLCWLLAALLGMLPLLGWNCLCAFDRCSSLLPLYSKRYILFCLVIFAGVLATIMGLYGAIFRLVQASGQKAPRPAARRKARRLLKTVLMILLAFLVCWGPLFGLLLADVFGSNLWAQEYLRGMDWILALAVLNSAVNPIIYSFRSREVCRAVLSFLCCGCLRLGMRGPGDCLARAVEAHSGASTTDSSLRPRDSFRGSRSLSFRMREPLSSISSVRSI

[7] = system: HEK293; assay: cells; details: Homo sapiens;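 further: cells exposed to compound for 14 hours overnight before viability readout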
[8] = biological target: Tumor necrosis factor (Homo sapiens, UniProt P01375); assay: analog potency on TNFa NF-kB signaling – cell-based, revised, SAR follow-up (AID 2337); type: functional
[9] = biological target: Nucleotide-binding oligomerization domain-containing protein 1 (Homo sapiens, UniProt Q9Y239); assay: blockers of NOD1 pathway activity – revised, SAR follow-up (AID 2333); type: functional
[10] = biological target: Nucleotide-binding oligomerization domain-containing protein 2 (Homo sapiens, UniProt Q9HC29); assay: PubChem AID 2334; type: functional
[11] = biological target: T2, Streptokinase A (Streptococcus pyogenes serotype M1, UniProt P10520); assay: viability-normalized secreted streptokinase activity reduction – plasminogen activation absorbance, OD405, dose response (AID 1914); type: functional, Streptococcus pyogenes M1 GAS;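 further: secreted streptokinase activity via plasminogen activation per viability signal from cell pellet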
T2 sequence (P10520 whole entry): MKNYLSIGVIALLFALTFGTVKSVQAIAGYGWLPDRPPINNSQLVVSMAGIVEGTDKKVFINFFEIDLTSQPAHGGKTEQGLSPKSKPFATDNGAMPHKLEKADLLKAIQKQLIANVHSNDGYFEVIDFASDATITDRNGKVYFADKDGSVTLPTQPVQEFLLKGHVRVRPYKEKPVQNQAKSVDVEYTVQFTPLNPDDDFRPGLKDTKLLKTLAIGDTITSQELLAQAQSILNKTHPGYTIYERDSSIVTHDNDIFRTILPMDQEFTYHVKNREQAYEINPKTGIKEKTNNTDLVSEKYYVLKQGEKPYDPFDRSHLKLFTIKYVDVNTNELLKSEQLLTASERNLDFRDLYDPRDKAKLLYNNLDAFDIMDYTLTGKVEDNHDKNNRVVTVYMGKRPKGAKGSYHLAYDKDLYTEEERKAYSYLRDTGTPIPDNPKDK

[12] = system: Streptococcus; assay: GAS UMAA2166 growth inhibition – luminescence, BacTiterGlo, counter-screen for streptokinase expression inhibitor project, dose response (AID 1915); type: functional, organism-based;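 further: potency for reduction of bacterial viability or growth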
[13] = biological target: Intestinal-type alkaline phosphatase (Mus musculus, UniProt P24822); assay: PubChem AID 488785; type: functional
[14] = system: Streptococcus sp. 'group A'; assay: Streptococcus pyogenes SK(-)GAS viability under kanamycin – luminescence, BacTiterGlo, confirmation, counter-screen for streptokinase expression inhibitor project, dose response (AID 1900); type: functional, organism-based
[15] = biological target: Intestinal-type alkaline phosphatase (Homo sapiens, UniProt P09923); assay: inhibition of human intestinal alkaline phosphatase – biochemical, dose response (AID 488876); type: functional
[16] = biological target: T3, Alkaline phosphatase, tissue-nonspecific isozyme (Homo sapiens, UniProt P05186); assay: TNAP enzyme inhibition by screening hits, dose response, selectivity assay for mouse IAP inhibitor project, biochemical, human TNAP, uHTS hits (AID 488906); type: functional
T3 sequence (P05186 whole entry): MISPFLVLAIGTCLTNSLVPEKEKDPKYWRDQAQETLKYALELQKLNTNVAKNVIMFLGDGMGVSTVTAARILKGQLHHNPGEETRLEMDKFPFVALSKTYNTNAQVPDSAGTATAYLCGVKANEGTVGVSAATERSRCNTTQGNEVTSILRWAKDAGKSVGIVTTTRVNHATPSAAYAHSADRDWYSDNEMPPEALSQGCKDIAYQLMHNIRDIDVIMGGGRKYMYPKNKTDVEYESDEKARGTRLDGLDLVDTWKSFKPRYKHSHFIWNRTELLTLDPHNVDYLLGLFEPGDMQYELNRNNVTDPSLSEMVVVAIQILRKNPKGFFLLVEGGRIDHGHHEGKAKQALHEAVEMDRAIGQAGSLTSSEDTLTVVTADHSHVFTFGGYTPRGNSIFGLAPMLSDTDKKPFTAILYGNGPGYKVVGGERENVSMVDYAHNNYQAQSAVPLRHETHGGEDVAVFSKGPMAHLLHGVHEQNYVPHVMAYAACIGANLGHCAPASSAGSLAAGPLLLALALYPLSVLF

[17] = biological target: Scavenger receptor class B member 1 (Mus musculus, UniProt Q61009); assay: mouse SR-BI DiI-HDL uptake blockers – ldlA[mSR-BI] cells, fluorescence, cherry pick, dose response (AID 493194); type: functional, cell-based;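 further: cellular uptake of fluorescent DiI-labeled HDL measured as cell fluorescence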
[18] = biological target: Hexokinase-1 (Homo sapiens, UniProt P19367); assay: HK1 enzyme activation by HKDC1 hits – biochemical, selectivity assay for HKDC1 activator project, dose response (AID 504762); type: functional
[19] = biological target: T4, Histone-lysine N-methyltransferase NSD2 (Homo sapiens, UniProt O96028); type: biochemical
T4 sequence (O96028 whole entry): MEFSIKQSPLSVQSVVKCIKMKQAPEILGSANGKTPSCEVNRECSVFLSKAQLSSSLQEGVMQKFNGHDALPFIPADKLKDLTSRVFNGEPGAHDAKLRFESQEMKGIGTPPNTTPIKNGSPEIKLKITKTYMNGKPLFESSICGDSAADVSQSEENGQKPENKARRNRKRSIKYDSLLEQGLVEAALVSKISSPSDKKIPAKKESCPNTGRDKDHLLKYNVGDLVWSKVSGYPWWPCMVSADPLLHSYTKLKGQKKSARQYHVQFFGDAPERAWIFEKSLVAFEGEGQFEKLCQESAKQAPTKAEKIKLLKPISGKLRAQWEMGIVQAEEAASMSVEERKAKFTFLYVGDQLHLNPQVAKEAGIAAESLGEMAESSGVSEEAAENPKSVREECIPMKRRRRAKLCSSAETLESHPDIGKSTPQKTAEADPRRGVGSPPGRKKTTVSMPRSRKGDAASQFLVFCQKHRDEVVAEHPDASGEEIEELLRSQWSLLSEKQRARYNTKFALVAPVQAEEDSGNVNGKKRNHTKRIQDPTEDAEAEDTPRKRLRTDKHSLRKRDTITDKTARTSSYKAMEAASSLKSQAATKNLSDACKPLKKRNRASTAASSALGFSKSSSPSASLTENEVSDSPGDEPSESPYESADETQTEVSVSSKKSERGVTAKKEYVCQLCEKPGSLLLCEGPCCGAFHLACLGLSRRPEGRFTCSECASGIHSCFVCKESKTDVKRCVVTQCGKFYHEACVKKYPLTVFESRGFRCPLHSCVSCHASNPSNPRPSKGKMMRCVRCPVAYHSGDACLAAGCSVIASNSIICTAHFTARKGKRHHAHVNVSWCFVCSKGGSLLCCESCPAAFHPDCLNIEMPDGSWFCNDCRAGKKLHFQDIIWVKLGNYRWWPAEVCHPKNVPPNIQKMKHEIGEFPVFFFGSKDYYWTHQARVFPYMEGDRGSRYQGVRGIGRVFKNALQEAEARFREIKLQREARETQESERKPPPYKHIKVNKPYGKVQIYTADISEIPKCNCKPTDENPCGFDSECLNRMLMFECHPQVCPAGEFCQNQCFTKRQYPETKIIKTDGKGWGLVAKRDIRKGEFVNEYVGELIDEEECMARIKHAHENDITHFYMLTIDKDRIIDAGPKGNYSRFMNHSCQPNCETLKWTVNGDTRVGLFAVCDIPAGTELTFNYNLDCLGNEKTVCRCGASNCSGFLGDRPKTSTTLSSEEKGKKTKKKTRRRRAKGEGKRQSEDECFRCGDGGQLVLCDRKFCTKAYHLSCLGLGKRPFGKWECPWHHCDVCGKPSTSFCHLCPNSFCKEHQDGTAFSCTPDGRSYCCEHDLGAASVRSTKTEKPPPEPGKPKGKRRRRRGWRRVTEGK

[20] = biological target: Hexokinase HKDC1 (Homo sapiens, UniProt Q2TB90); assay: activation of HKDC1 glucose phosphorylation – biochemical, W721R variant, dose response (AID 504730); type: functional
[21] = Fluorescence-based cell-based high throughput dose response assay for inhibitors of the interaction of nucleotide-binding oligomerization domain containing 2 (NOD2) and the receptor-interacting serine-threonine kinase 2 (RIPK2).; type: functional; details: Homo sapiens

Sequence of Sphingosine 1-phosphate receptor 5 (Q9H228 whole entry): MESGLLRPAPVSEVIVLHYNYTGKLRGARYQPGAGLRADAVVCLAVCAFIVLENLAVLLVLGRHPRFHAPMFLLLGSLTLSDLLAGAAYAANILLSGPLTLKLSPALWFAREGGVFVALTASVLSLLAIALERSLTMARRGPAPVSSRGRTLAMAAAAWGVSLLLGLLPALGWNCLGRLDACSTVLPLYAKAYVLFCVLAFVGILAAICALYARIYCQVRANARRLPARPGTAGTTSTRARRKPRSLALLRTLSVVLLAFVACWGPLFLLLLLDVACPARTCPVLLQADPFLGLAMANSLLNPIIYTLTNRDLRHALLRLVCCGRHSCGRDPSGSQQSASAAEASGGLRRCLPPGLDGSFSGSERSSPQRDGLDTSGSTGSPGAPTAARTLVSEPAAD
Sequence of Intestinal-type alkaline phosphatase (Mus musculus, UniProt P24822) (P24822 whole entry): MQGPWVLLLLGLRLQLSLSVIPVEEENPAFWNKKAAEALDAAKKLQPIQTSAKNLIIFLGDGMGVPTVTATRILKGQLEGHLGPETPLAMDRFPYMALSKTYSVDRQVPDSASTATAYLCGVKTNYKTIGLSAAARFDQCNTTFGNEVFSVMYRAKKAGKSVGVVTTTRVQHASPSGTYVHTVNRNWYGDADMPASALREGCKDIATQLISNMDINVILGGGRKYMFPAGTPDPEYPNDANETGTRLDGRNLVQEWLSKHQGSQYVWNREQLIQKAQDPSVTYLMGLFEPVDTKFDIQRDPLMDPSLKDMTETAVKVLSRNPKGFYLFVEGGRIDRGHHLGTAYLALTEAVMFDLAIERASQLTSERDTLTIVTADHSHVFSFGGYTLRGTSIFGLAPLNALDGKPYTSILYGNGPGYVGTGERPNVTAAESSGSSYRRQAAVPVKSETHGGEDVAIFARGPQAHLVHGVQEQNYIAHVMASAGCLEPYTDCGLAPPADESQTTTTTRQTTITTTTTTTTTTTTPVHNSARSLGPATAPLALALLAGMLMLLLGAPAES
Sequence of Nucleotide-binding oligomerization domain-containing protein 2 (Q9HC29 whole entry, the tested form may be a part): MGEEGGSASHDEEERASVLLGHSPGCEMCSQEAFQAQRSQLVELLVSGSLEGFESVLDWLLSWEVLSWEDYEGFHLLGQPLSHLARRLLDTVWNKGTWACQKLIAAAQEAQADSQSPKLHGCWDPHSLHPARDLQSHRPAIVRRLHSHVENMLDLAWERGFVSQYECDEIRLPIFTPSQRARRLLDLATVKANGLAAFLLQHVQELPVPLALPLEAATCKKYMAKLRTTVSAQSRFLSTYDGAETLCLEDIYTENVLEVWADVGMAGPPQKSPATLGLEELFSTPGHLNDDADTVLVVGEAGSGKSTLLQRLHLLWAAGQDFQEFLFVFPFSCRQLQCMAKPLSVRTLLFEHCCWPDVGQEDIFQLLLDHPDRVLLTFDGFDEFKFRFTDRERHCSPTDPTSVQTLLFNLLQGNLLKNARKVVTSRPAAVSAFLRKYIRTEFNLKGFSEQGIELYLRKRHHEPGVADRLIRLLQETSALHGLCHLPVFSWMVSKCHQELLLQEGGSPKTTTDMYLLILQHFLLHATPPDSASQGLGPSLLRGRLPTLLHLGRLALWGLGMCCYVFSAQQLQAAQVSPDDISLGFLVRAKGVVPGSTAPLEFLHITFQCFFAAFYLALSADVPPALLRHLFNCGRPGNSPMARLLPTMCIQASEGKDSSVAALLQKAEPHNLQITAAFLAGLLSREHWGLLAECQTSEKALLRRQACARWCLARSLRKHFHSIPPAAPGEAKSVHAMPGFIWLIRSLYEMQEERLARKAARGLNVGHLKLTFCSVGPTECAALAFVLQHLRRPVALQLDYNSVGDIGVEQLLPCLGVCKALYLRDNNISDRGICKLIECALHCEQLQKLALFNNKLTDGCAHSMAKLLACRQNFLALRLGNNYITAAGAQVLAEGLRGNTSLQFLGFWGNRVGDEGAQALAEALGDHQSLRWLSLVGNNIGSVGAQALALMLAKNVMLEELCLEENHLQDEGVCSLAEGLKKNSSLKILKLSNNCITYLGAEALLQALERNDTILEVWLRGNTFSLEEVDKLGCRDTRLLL
Sequence of Hexokinase-1 (P19367 whole entry): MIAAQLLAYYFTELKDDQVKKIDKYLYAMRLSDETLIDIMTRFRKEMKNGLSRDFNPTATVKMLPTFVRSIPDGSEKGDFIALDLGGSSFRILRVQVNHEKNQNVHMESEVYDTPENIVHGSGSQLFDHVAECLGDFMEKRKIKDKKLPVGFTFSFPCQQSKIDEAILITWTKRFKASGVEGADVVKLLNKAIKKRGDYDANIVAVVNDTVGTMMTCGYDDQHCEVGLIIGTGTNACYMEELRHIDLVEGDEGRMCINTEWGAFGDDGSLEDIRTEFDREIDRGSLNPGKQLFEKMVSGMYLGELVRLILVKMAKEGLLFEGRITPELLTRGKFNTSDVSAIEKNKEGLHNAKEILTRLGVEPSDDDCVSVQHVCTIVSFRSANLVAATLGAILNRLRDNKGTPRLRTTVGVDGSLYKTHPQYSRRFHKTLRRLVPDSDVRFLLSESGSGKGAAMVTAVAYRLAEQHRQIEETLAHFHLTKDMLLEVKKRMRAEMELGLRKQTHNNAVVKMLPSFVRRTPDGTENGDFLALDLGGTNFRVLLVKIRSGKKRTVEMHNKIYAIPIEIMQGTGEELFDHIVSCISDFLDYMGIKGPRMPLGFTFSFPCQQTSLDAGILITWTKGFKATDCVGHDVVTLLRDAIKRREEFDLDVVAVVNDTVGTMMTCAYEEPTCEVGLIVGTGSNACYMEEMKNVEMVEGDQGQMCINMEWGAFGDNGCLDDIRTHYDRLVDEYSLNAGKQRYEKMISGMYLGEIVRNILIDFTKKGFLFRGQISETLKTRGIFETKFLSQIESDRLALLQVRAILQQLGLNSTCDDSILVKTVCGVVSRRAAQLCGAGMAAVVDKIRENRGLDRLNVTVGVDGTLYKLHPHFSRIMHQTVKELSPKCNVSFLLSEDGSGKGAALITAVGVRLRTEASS
Sequence of Potassium voltage-gated channel subfamily KQT member 2 (O88943 whole entry): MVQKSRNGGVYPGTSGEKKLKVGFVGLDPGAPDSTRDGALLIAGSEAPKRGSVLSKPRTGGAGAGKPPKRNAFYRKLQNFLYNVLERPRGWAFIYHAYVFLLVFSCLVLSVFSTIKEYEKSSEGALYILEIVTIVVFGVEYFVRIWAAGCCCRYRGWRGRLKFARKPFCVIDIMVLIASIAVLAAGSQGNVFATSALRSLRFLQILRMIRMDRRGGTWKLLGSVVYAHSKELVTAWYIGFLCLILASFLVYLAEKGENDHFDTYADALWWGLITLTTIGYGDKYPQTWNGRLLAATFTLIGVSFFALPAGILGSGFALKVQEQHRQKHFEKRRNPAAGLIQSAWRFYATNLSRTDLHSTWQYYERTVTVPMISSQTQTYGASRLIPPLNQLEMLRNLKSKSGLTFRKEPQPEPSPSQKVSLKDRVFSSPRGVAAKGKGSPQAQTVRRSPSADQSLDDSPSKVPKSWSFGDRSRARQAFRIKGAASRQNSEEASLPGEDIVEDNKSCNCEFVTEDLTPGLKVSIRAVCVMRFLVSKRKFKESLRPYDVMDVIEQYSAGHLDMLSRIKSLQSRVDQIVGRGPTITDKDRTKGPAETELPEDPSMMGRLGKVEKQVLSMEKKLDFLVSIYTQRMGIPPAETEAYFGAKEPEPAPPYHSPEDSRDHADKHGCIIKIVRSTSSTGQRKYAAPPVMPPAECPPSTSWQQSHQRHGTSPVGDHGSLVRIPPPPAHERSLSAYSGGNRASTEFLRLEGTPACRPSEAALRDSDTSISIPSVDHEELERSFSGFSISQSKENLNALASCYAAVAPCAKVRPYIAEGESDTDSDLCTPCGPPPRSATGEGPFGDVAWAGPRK
Sequence of Scavenger receptor class B member 1 (Q61009 whole entry): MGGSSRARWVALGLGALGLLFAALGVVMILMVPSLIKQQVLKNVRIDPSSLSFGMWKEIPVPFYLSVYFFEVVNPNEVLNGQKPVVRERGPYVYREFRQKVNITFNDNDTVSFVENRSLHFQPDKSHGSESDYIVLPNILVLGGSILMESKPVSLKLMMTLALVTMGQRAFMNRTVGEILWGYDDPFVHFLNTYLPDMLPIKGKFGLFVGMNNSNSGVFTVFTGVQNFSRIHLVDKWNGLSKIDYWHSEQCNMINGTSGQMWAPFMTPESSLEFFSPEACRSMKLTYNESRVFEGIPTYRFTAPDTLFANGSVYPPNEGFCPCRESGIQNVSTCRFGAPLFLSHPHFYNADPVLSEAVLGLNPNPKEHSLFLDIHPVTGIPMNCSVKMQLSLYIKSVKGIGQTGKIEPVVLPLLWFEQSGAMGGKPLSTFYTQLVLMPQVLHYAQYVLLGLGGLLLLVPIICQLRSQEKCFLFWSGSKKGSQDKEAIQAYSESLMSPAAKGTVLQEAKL
Sequence of Sphingosine 1-phosphate receptor 2 (O95136 whole entry): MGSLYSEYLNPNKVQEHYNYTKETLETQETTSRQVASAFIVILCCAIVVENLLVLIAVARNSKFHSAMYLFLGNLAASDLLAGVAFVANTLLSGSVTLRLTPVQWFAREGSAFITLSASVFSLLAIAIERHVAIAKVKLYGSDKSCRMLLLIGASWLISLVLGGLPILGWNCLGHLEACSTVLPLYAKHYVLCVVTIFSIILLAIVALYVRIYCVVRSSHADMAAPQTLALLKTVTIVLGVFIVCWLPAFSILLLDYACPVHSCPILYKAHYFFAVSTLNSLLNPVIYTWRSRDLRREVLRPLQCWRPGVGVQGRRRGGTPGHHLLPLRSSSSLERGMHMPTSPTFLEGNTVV
Sequence of Sphingosine 1-phosphate receptor 3 (Q99500 whole entry): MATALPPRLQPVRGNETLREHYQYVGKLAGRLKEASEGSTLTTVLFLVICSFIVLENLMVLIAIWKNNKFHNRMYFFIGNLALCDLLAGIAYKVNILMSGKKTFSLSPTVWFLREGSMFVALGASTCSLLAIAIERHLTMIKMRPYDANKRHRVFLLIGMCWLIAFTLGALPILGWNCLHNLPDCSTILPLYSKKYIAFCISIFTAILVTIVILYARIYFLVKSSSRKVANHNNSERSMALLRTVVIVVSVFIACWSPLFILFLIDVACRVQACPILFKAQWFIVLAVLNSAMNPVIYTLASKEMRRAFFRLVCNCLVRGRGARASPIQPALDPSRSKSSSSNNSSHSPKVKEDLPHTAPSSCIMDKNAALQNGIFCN

Compound: Cc1cc(C)c(NC(=O)C2CCCCC2)c(C)c1
- EC50 [1]: 1.57 µM (active)

Compound: CCc1cccc(C)c1NC(=O)c1ccc(-c2cc(OC)ccc2OC)o1
- IC50 [2]: > 25 µM (inactive)
- IC50 [3]: > 25 µM (inactive)
- IC50 [4]: > 25 µM (inactive)
- IC50 [5]: > 25 µM (inactive)
- IC50 [6]: 0.513 µM (active)

Compound: O=C(Nc1nc2ccccc2n1Cc1ccc(Cl)cc1)c1ccc(Cl)cc1
- IC50 [7]: > 20 µM (inactive)
- IC50 [8]: > 20 µM (inactive)
- IC50 [9]: > 20 µM (inactive)
- IC50 [10]: > 20 µM (inactive)

Compound: Cc1c(Cl)cccc1N=C(S)NCCC(c1ccccc1)c1ccccc1
- EC50 [11]: 3.76 µM (active)
- EC50 [12]: > 150 µM (not active)
- IC50 [13]: 8.34 µM (active)
- EC50 [14]: 8.52 µM (active)
- IC50 [15]: 42.4 µM (active)
- IC50 [16]: 29 µM (active)

Compound: CC(=O)OC1C2(CC3N4C(=O)C5(CO)SSC4(CC31O)C(=O)N5C)OC(C)C(C)(C)C2=O (stereo unspecified)
- AC50 [17]: 5.61 µM (active)
- EC50 [18]: > 80 µM (inactive)
- AC50 [19]: 1.06 µM (active)
- EC50 [20]: 0.212 µM (active)
- IC50 [21]: 3.64 µM (active)
